Laboratory results: publication PMC5430962, “Retro-inverso Urokinase Receptor Antagonists for the Treatment of Metastatic Sarcomas” (Scientific Reports, 2017)
[ ]: non-standard residue; d: D form. Aib = CC(C)(N)C(=O)O

Key:
[1] = test system: HT1080 cells; test: HT1080 cell migration toward 10% FBS in Boyden chambers; type: cell-based, human; settings: 10 nM peptide plus 10% FBS, 4 hr, means of three independent experiments in triplicate
Experimental: Cell migration in Boyden chambers was carried out for 4 hr at 37 °C in humidified air with 5% CO2, as described. Briefly, cell suspension (1 × 10^5 viable cells/mL serum free medium) was seeded in each upper chamber. Lower chambers were filled with DMEM alone, DMEM containing RI peptides, 10 nM fMLF, or 10% FBS with/without RI peptides. The two compartments were separated by 8 μm pore size polycarbonate filters (Neuroprobe) coated with 2.5 µg/mL vitronectin (Corning). For the invasion assays, 8 μm pore size filters were coated with 50 μg/filter matrigel (BD Biosciences) as previously described[40] and cells (3 × 10^4 viable cells/well) were allowed to invade matrigel for 6 hr at 37 °C, 5% CO2. In all cases, at the end of the assay, cells on the lower filter surface were fixed with ethanol, stained with haematoxylin and 10 random fields/filter were counted at 200× magnification. Each experiment was performed three times in triplicate.

[2] = test system: chondrosarcoma Sarc cells; test: Matrigel invasion kinetics, xCELLigence RTCA, Sarc; type: cell-based, human; settings: 10 nM, 10% FBS, 20 hr
Experimental: This assay was performed using E-well plates and the xCELLigence RTCA technology as described. Bottom wells were coated with 20 µg/well matrigel diluted in serum free medium. Matrigel was allowed to polymerize for 1 hr at 37 °C prior to seeding cells (1 × 10^4 cells/well) suspended in growth medium plus/minus RI peptides. Cells that cross matrigel adhere to the bottom of plates causing impedance changes that are proportional to the number of invading cells, and are expressed as a cell index value. Matrigel invasion was monitored for 20 hr. The experiments were performed three times in quadruplicate.

[3] = test system: Akt(S473); test: Phospho-kinase array, RBL-2H3/ETFR cells; type: cell-based, rat; settings: 10 nM fMLF plus 10 nM peptide, 10 min
Experimental: (§1) RBL-2H3/ETFR grown to semi-confluence, were exposed to DMEM alone, 10 nM fMLF with/without 10 nM RI-3 at 37 °C in humidified air with 5% CO2. At the indicated times, cells were lysed in RIPA buffer and cell lysate protein content was measured by a colorimetric assay. Western blot analysis of AKT phosphorylation was performed as previously described using anti-phospho-Akt (Ser473) (pAKT) Ab (Cell Signaling) and anti-Akt mAb (R&D System). The effects of fMLF with/without 10 nM RI-3 were analyzed at the level of global kinase phosphorylation, using the dot-blot Proteome Profiler^TM Array Human PhosphoKinase Array Kit (R&D Systems), according to manufacturer’s instructions. Briefly, 300 µg of protein were applied on each membrane and the signals were detected as described for Western blot. The pixel density of each spot was measured using NIH Image 1.62 software. The intensity of positive control spots was used to normalize results between the four membranes. The intensity for each spot was then averaged over the duplicate spots.

[4] = test system: CREB(S133); test: Phospho-kinase array, RBL-2H3/ETFR cells; type: cell-based, rat; settings: 10 nM fMLF plus 10 nM peptide, 10 min
Experimental: as §1

[5] = test system: ERK1/2(T202/Y204/T185/Y187); test: Phospho-kinase array, RBL-2H3/ETFR cells; type: cell-based, rat; settings: 10 nM fMLF plus 10 nM peptide, 10 min
Experimental: as §1

[6] = test system: FAK(Y397); test: Phospho-kinase array, RBL-2H3/ETFR cells; type: cell-based, rat; settings: 10 nM fMLF plus 10 nM peptide, 10 min
Experimental: as §1

[7] = test system: Fgr(Y412); test: Phospho-kinase array, RBL-2H3/ETFR cells; type: cell-based, rat; settings: 10 nM fMLF plus 10 nM peptide, 10 min
Experimental: as §1

[8] = test system: p38α(T180/Y182); test: Phospho-kinase array, RBL-2H3/ETFR cells; type: cell-based, rat; settings: 10 nM fMLF plus 10 nM peptide, 10 min
Experimental: as §1

[9] = test system: Sarc cells crossing HUVEC monolayer; test: Trans-endothelial migration of Sarc cells, xCELLigence RTCA; type: cell-based, human; settings: 10 nM, EBM-10% FBS, slopes in a 25–35 hr time frame
Experimental: Trans-endothelial migration assays were performed using the xCELLigence RTCA technology as described. Briefly, HUVECs (1 × 10^4 cells/well) suspended in growth medium, were seeded in E-plates and allowed to grow for ~25 hr, until they form a confluent monolayer, prior to seeding Sarc cells (1 × 10^4 cells/well) in growth medium plus/minus 10 nM RI-3. When HUVECs are challenged with crossing cells, there is a drop in electrical resistance that is monitored in real-time as cell index changes due to the rupture of the endothelial monolayer. The experiment was performed twice in quadruplicate.

## Ac-[dY][dR][Aib][dR]-NH2 (SMILES CC(=O)N[C@H](Cc1ccc(O)cc1)C(=O)N[C@H](CCCNC(=N)N)C(=O)NC(C)(C)C(=O)N[C@H](CCCNC(=N)N)C(N)=O) [RI-3]
[1]
  reduction of FBS-directed cell migration: 57%
[2]
  reduction of matrigel invasion (slope of cell index): 47%
[3]
  reduction in fMLF-dependent phosphorylation of Akt(S473): 22%
[4]
  reduction in fMLF-dependent phosphorylation of CREB(S133): 42%
[5]
  reduction in fMLF-dependent phosphorylation of ERK1/2(T202/Y204/T185/Y187): 25%
[6]
  reduction in fMLF-dependent phosphorylation of FAK(Y397): 30%
[7]
  reduction in fMLF-dependent phosphorylation of Fgr(Y412): 43%
[8]
  reduction in fMLF-dependent phosphorylation of p38α(T180/Y182): 21%
[9]
  reduction of the capability of Sarc cells to disrupt endothelial monolayers: 24%
